Experimental data reported in ChEMBL document CHEMBL3045967, “Discovery of imidazole glycerol phosphate dehydratase inhibitors through 3-D database searching” (Bioorg Med Chem Lett, 2002).
Activity calls are given as the source filed them. No cut-off for these calls is given here.

Target: Histidine biosynthesis bifunctional protein HisB (Escherichia coli O26:H11 str. CFSAN001629) (UniProt P06987)
Test: (§1) Inhibition of Escherichia coli imidazoleglycerol phosphate dehydratase using imidazole glycerol phosphate as substrate incubated for 30 min prior to substrate addition measured for 16 min by spectrophotometric analysis

Histidine biosynthesis bifunctional protein HisB (Escherichia coli O26:H11 str. CFSAN001629), sequence (P06987 whole entry): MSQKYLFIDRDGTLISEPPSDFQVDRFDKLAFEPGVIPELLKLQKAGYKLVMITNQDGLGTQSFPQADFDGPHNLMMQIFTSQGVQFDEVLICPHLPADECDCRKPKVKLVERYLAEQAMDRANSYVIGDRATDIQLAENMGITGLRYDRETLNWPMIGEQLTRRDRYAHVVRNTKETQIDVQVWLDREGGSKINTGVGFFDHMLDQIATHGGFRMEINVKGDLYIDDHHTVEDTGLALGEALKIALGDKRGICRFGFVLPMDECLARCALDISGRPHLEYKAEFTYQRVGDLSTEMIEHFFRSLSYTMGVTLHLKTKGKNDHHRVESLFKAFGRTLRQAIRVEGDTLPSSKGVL

For `CCOC(=O)c1[nH]c(C)c(C(=O)OC)c1C`, the inhibition was “inactive”.

Target: Histidine biosynthesis bifunctional protein HisB (Escherichia coli O26:H11 str. CFSAN001629, UniProt P06987)
Test: as §1

Histidine biosynthesis bifunctional protein HisB, sequence (P06987 whole entry): as above

`CCOC(=O)c1[nH]c(C=O)c(C(=O)OCC)c1CC` and `CCOC(=O)c1[nH]c(C=O)c(C(=O)OCC)c1C` are within 1.5-fold of each other in IC50: 5.6 µM for the first, 5.1 µM for the second.

First: CCOC(=O)c1[nH]c(C=O)cc1C
Second: CCOC(=O)c1[nH]c(C=O)c(C)c1C
The IC50 of the first is 1.9-fold lower: 9.2 µM for the first, 17.6 µM for the second. The first is the more potent here.

Going from `Cc1c(C=O)[nH]c(C(=O)OCc2ccccc2)c1C` to `CCc1c(C=O)[nH]c(C(=O)OCc2ccccc2)c1C`, the IC50 rises from 8.9 µM to 24 µM (2.7-fold). The first is the more potent here.

Compared with `CCOC(=O)CCc1c(C(=O)OCC)[nH]c(C=O)c1CC(=O)OCC`, `COC(=O)c1[nH]c(C=O)c(C(=O)OC)c1C(C)C` is 1.5-fold lower in IC50: 12.6 µM for the first, 8.3 µM for the second.

Compared with `Cc1c(C=O)[nH]c(C=O)c1C`, `O=Cc1[nH]c(C(=O)OCc2ccccc2)c(Cc2ccccc2)c1Cc1ccccc1` is 1.8-fold lower in IC50: 7.1 µM for the first, 4 µM for the second.
